Measurements published in PubChem BioAssay AID2005 (Sanford-Burnham Center for Chemical Genomics, 2009).
Active and inactive are the calls of the source.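 How the source made its calls: active means plate Z score at or below -3, or inhibition of at least 30% at 20 µM; inactive means the rest.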

Columns and labels:
[1] = EGFP reporter destabilization counter-screen – F442A EGFP cells, fluorescence, counter-screen for p/CIP destabilizer project, dose response (AID 2005); settings: F442A EGFP cells, EGFP fluorescence, 16 h; EGFP decrease; at 10 µM; stronger effect = higher value;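 further: cells express EGFP alone from a CMV promoter as a counter screen for p/CIP-EGFP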
[2] = test system: F442A EGFP cells, EGFP fluorescence, 16 h; test: as above

Row | SMILES | inhibition [1] [%] | IC50 [2]
1 | COc1ccc(CS(=O)/C(Cl)=C(/Cl)C(=O)Nc2ccc(OC)nc2)cc1 (stereo unspecified) | -232 | 48 µM (inactive)
2 | O=C1C(Nc2ccccc2)=C/C(=N/S(=O)(=O)c2cccs2)c2ccccc21 | 62.1 | 10.4 µM
3 | CC1CCN(S(=O)(=O)c2ccc3c(c2)C(=NO)c2cc(S(=O)(=O)N4CCC(C)CC4)ccc2-3)CC1 | 68.9 | 7.46 µM
4 | COc1ccc(NC(=O)/C(Cl)=C(/Cl)S(=O)Cc2ccc(Cl)cc2)cn1 (stereo unspecified) | -168 | 49.9 µM (inactive)
5 | O=C1C(Nc2ccc(O)cc2)=C/C(=N/S(=O)(=O)c2cccs2)c2ccccc21 | 66 | 5.18 µM
6 | Cc1oc2c(c1C(=O)NCc1cccnc1)C(=O)c1ccccc1C2=O | 72 | 5.99 µM
7 | Cc1ccc(NC2=C/C(=N\S(=O)(=O)c3cccs3)c3ccccc3C2=O)c(C)c1 | 60 | 16 µM
8 | O=C1C(Cl)=C(NCCN2CCCCC2)C(=O)c2ccccc21 | 16.1 | 20.4 µM
